Data taken from US20200197533A1, “COMBINATION CANCER THERAPY USING CHIMERIC ANTIGEN RECEPTOR ENGINEERED NATURAL KILLER CELLS AS CHEMOTHERAPEUTIC DRUG CARRIERS” (priority 2017, published 2020).
“Also recorded” adds a separate entry of the source.

Tests used:
[1] = tested on: NK92 cells; assay: Cell viability (XTT) assay with cMLV(PTX); format: cell-based, human; conditions: various concentrations of cMLV(PTX)
Method: (§1) NK92 and SKOV3 cells were seeded in 96-well plates at 2×10^4 cells per well in 10% FBS-containing media and grown at 37° C. in the presence of 5% CO2 for 6 hours. Cells were incubated with various concentrations of cMLV (PTX) as previously described (Liu, Y, et al (2014). Codelivery of doxorubicin and paclitaxel by cross-linked multilamellar liposome enables synergistic antitumor activity. Mol Pharm 11: 1651-1661) and cell viability was assessed using the Cell Proliferation Kit II (XTT assay) from Roche Applied Science (Indianapolis, Ind.) according to the manufacturer's instructions. Cell viability percentage was determined by subtracting absorbance values obtained from media-only wells from the treated wells and then normalized by the control wells containing cells without drugs.

[2] = tested on: SKOV3 cells; assay: Cell viability (XTT) assay with cMLV(PTX); format: cell-based; conditions: various concentrations of cMLV(PTX), compared with NK cells
Method: as §1

[3] = tested on: lymphoma cells; conditions: drug-loaded nanocapsules conjugated to murine T cells; cited from earlier work
[4] = tested on: T cell carriers; conditions: drug-loaded nanocapsules conjugated to murine T cells; cited from earlier work

CC(=O)O[C@H]1C(=O)[C@@]2(C)[C@H]([C@H](OC(=O)c3ccccc3)[C@]3(O)C[C@H](OC(=O)[C@H](O)[C@@H](NC(=O)c4ccccc4)c4ccccc4)C(C)=C1C3(C)C)[C@]1(OC(C)=O)CO[C@@H]1C[C@@H]2O [PTX, paclitaxel]
cell viability of NK92 carrier cells exposed to PTX [1]: not NK92 cells | cell viability of SKOV3 tumor cells exposed to PTX [2]: more sensitive to PTX; also recorded: can kill tumor cells

CCc1c2c(nc3ccc(O)cc13)-c1cc3c(c(=O)n1C2)COC(=O)[C@]3(O)CC [SN-38]
killing of lymphoma cells [3]: effectively killed lymphoma cells | toxicity to the T cell carriers [4]: not toxic to the T cell carriers
